The values below come from ChEMBL document CHEMBL1139487, “Discovery of corticotropin releasing factor 2 receptor selective sauvagine analogues for treatment of skeletal muscle atrophy” (J Med Chem, 2005).

Assay [1] has as its target T1, Corticotropin-releasing factor receptor 1 (Mus musculus, UniProt P35347).
T1 sequence (P35347 whole entry): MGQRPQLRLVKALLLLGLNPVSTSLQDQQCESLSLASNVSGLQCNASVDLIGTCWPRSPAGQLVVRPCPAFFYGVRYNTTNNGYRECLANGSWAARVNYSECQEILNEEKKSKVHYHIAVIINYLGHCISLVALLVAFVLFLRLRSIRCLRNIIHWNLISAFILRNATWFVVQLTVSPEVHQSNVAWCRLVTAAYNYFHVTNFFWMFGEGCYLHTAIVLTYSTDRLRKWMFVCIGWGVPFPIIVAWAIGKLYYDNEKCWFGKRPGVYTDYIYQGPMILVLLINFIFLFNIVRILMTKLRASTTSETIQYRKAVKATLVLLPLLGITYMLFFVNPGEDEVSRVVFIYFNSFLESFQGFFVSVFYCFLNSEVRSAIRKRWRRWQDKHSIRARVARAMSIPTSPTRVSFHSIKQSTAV
The experiment in a line: In vitro effective concentration for mouse corticotropin releasing factor 1 receptor.

Assay [2] deals with Corticotropin-releasing factor receptor 2 (Mus musculus, UniProt Q60748). In words: In vitro effective concentration for mouse corticotropin releasing factor 2 receptor.
The target in assay [3] is Corticotropin-releasing factor receptor 2 (Mus musculus) (UniProt Q60748). The experiment in a line: In vitro agonistic activity against mouse corticotropin releasing factor 2 receptor. The format is functional.
Assay [4] concerns the target T2, Corticotropin-releasing factor receptor 1 (Mus musculus) (UniProt P35347).
T2 sequence (whole entry): T1 sequence (P35347 whole entry)
In words: In vitro agonistic activity against mouse corticotropin releasing factor 1 receptor. It counts as functional.

Corticotropin-releasing factor receptor 2 (Mus musculus), sequence (Q60748 whole entry): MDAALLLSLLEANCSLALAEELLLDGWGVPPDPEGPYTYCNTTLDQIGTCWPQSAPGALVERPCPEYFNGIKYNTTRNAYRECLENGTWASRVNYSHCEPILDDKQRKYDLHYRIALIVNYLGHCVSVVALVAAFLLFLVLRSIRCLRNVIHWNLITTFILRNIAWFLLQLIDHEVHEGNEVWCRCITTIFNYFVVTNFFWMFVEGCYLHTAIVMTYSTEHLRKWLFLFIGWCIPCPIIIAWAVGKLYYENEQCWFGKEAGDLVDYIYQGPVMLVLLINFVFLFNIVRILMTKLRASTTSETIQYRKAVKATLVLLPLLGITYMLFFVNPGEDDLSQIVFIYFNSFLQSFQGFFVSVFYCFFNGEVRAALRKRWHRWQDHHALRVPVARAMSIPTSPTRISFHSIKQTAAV
Corticotropin-releasing factor receptor 2, sequence (Q60748 whole entry): as above

A word on the EC50: it is the concentration giving half of the maximal effect. High values mean a need for much substance, low ones an effect from little substance. Turning to `CC[C@H](C)[C@H](NC(=O)[C@@H](NC(=O)[C@H](CC(=O)O)NC(=O)[C@H](CC(C)C)NC(=O)[C@H](CC(C)C)NC(=O)[C@H](CC(C)C)NC(=O)[C@H](CCCNC(=N)N)NC(=O)[C@H](CC(N)=O)NC(=O)[C@H](CC(N)=O)NC(=O)[C@H](C)NC(=O)[C@H](C)NC(=O)[C@H](CCC(N)=O)NC(=O)[C@H](CCC(N)=O)NC(=O)[C@H](CCCCN)NC(=O)[C@H](CCC(=O)O)NC(=O)[C@H](CCCCN)NC(=O)[C@H](CCC(=O)O)NC(=O)[C@H](CCC(N)=O)NC(=O)[C@H](CCCCN)NC(=O)[C@H](CCC(=O)O)NC(=O)[C@@H](NC(=O)[C@H](CCC(=O)O)NC(=O)[C@@H](NC(=O)[C@H](CCSC)NC(=O)[C@H](CCCCN)NC(=O)[C@H](CCCNC(=N)N)NC(=O)[C@H](CC(C)C)NC(=O)[C@H](CC(C)C)NC(=O)[C@H](Cc1ccc(O)cc1)NC(=O)[C@H](Cc1ccc(O)cc1)NC(=O)[C@@H]1CCCN1C(=O)[C@H](CC(C)C)NC(=O)[C@H](CC(=O)O)NC(=O)[C@@H](NC(=O)[C@H](CO)NC(=O)[C@@H](NC(=O)[C@@H]1CCCN1C(=O)[C@@H]1CCCN1C(=O)CNC(=O)[C@@H]1CCC(=O)N1)[C@@H](C)CC)[C@@H](C)CC)[C@@H](C)CC)[C@@H](C)CC)[C@@H](C)O)C(=O)O`, the EC50 in assay [1] was 102 nM; in assay [2] it was 7 nM.
The like results for `CC[C@H](C)[C@H](NC(=O)[C@@H](NC(=O)[C@H](CC(=O)O)NC(=O)[C@H](CC(C)C)NC(=O)[C@H](CC(C)C)NC(=O)[C@H](CC(C)C)NC(=O)[C@H](CCCNC(=N)N)NC(=O)[C@H](CC(N)=O)NC(=O)[C@H](CC(N)=O)NC(=O)[C@H](C)NC(=O)[C@H](C)NC(=O)[C@H](CCC(N)=O)NC(=O)[C@H](CCC(N)=O)NC(=O)[C@H](CCCCN)NC(=O)[C@H](CCC(=O)O)NC(=O)[C@H](CCCCN)NC(=O)[C@H](CCC(=O)O)NC(=O)[C@H](CCC(N)=O)NC(=O)[C@H](CCCCN)NC(=O)[C@H](CCC(=O)O)NC(=O)[C@@H](NC(=O)[C@H](CCC(=O)O)NC(=O)[C@@H](NC(=O)[C@H](CCSC)NC(=O)[C@H](CCCCN)NC(=O)[C@H](CCCNC(=N)N)NC(=O)[C@H](CC(C)C)NC(=O)[C@H](CC(C)C)NC(=O)[C@H](CC(C)C)NC(=O)[C@@H](NC(=O)[C@@H]1CCCN1C(=O)[C@H](CC(C)C)NC(=O)[C@H](CC(=O)O)NC(=O)[C@@H](NC(=O)[C@H](CO)NC(=O)[C@@H](NC(=O)[C@@H]1CCCN1C(=O)[C@@H]1CCCN1C(=O)CNC(=O)[C@@H]1CCC(=O)N1)[C@@H](C)CC)[C@@H](C)CC)[C@@H](C)O)[C@@H](C)CC)[C@@H](C)CC)[C@@H](C)O)C(=O)O` were, in that order, above 1000 nM and 20.6 nM.
`CC[C@H](C)[C@H](NC(=O)[C@@H](NC(=O)[C@H](CCC(=O)O)NC(=O)[C@H](CCSC)NC(=O)[C@H](CC(C)C)NC(=O)[C@H](CCCCN)NC(=O)[C@H](CCCNC(=N)N)NC(=O)[C@H](CC(N)=O)NC(=O)[C@H](CO)NC(=O)[C@H](Cc1c[nH]cn1)NC(=O)[C@H](C)NC(=O)[C@H](CCC(N)=O)NC(=O)[C@H](CCC(N)=O)NC(=O)[C@H](C)NC(=O)[C@H](CC(C)C)NC(=O)[C@H](CCC(N)=O)NC(=O)[C@H](CCC(=O)O)NC(=O)[C@H](C)NC(=O)[C@H](CCCNC(=N)N)NC(=O)[C@H](C)NC(=O)[C@H](CCSC)NC(=O)[C@H](CCC(=O)O)NC(=O)[C@H](CC(C)C)NC(=O)[C@@H](NC(=O)[C@H](CCC(=O)O)NC(=O)[C@H](CCCNC(=N)N)NC(=O)[C@H](CC(C)C)NC(=O)[C@H](CC(C)C)NC(=O)[C@H](Cc1c[nH]cn1)NC(=O)[C@H](Cc1ccccc1)NC(=O)[C@@H](NC(=O)[C@H](CC(C)C)NC(=O)[C@H](CC(=O)O)NC(=O)[C@H](CC(C)C)NC(=O)[C@H](CO)NC(=O)[C@@H](NC(=O)[C@@H]1CCCN1C(=O)[C@@H]1CCCN1C(=O)[C@H](CCC(=O)O)NC(=O)[C@H](CCC(=O)O)NC(=O)[C@@H](N)CO)[C@@H](C)CC)[C@@H](C)O)C(C)C)[C@@H](C)CC)C(N)=O` [HUMAN CORTICOTROPIN RELEASING FACTOR] yielded an EC50 in assay [1] of 20 nM.
In the case of `CC[C@H](C)[C@H](NC(=O)[C@@H](NC(=O)[C@H](CC(=O)O)NC(=O)[C@H](CC(C)C)NC(=O)[C@H](CC(C)C)NC(=O)[C@H](CC(C)C)NC(=O)[C@H](CCCNC(=N)N)NC(=O)[C@H](CC(N)=O)NC(=O)[C@H](CC(N)=O)NC(=O)[C@H](C)NC(=O)[C@H](C)NC(=O)[C@H](CCC(N)=O)NC(=O)[C@H](CCC(N)=O)NC(=O)[C@H](CCCCN)NC(=O)[C@H](CCC(=O)O)NC(=O)[C@H](CCCCN)NC(=O)[C@H](CCC(=O)O)NC(=O)[C@H](CCC(N)=O)NC(=O)[C@H](CCCCN)NC(=O)[C@H](CCC(=O)O)NC(=O)[C@@H](NC(=O)[C@H](CCC(=O)O)NC(=O)[C@@H](NC(=O)[C@H](CCSC)NC(=O)[C@H](CCCCN)NC(=O)[C@H](CCCNC(=N)N)NC(=O)[C@H](CC(C)C)NC(=O)[C@H](CC(C)C)NC(=O)[C@@H](NC(=O)[C@H](Cc1ccccc1)NC(=O)[C@@H]1CCCN1C(=O)[C@H](CC(C)C)NC(=O)[C@H](CC(=O)O)NC(=O)[C@@H](NC(=O)[C@H](CO)NC(=O)[C@@H](NC(=O)[C@@H]1CCCN1C(=O)[C@@H]1CCCN1C(=O)CNC(=O)[C@@H]1CCC(=O)N1)[C@@H](C)CC)[C@@H](C)CC)C(C)C)[C@@H](C)CC)[C@@H](C)CC)[C@@H](C)O)C(=O)O`, the figures for the EC50 in assay [1] and in assay [2] were 85 nM and 5.9 nM, respectively.
The like results for `CC[C@H](C)[C@H](NC(=O)[C@@H](NC(=O)[C@H](CC(=O)O)NC(=O)[C@H](CC(C)C)NC(=O)[C@H](CC(C)C)NC(=O)[C@H](CC(C)C)NC(=O)[C@H](CCCNC(=N)N)NC(=O)[C@H](CC(N)=O)NC(=O)[C@H](CC(N)=O)NC(=O)[C@H](C)NC(=O)[C@H](C)NC(=O)[C@H](CCC(N)=O)NC(=O)[C@H](CCC(N)=O)NC(=O)[C@H](CCCCN)NC(=O)[C@H](CCC(=O)O)NC(=O)[C@H](CCCCN)NC(=O)[C@H](CCC(=O)O)NC(=O)[C@H](CCC(N)=O)NC(=O)[C@H](CCCCN)NC(=O)[C@H](CCC(=O)O)NC(=O)[C@@H](NC(=O)[C@H](CCC(=O)O)NC(=O)[C@@H](NC(=O)[C@H](CCSC)NC(=O)[C@H](CCCCN)NC(=O)[C@H](CCCNC(=N)N)NC(=O)[C@H](CC(C)C)NC(=O)[C@H](CC(C)C)NC(=O)[C@@H](NC(=O)[C@H](CC(C)C)NC(=O)[C@@H]1CCCN1C(=O)[C@H](CC(C)C)NC(=O)[C@H](CC(=O)O)NC(=O)[C@@H](NC(=O)[C@H](CO)NC(=O)[C@@H](NC(=O)[C@@H]1CCCN1C(=O)[C@@H]1CCCN1C(=O)CNC(=O)[C@@H]1CCC(=O)N1)[C@@H](C)CC)[C@@H](C)CC)C(C)C)[C@@H](C)CC)[C@@H](C)CC)[C@@H](C)O)C(=O)O` were, in that order, 265 nM and 5.5 nM.
What is called Emax is the maximal effect, on the per cent scale that the assay sets. Turning to `CC[C@H](C)[C@H](NC(=O)[C@@H](NC(=O)[C@H](CC(=O)O)NC(=O)[C@H](CC(C)C)NC(=O)[C@H](CC(C)C)NC(=O)[C@H](CC(C)C)NC(=O)[C@H](CCCN=C(N)N)NC(=O)[C@H](CC(N)=O)NC(=O)[C@H](CC(N)=O)NC(=O)[C@H](C)NC(=O)[C@H](C)NC(=O)[C@H](CCC(N)=O)NC(=O)[C@H](CCC(N)=O)NC(=O)[C@H](CCCCN)NC(=O)[C@H](CCC(=O)O)NC(=O)[C@H](CCCCN)NC(=O)[C@H](CCC(=O)O)NC(=O)[C@H](CCC(N)=O)NC(=O)[C@H](CCCCN)NC(=O)[C@H](CCC(=O)O)NC(=O)[C@@H](NC(=O)[C@H](CCC(=O)O)NC(=O)[C@@H](NC(=O)[C@H](CCSC)NC(=O)[C@H](CCCCN)NC(=O)[C@H](CCCN=C(N)N)NC(=O)[C@H](CC(C)C)NC(=O)[C@H](CC(C)C)NC(=O)[C@H](CCC(=O)O)NC(=O)[C@H](CC(C)C)NC(=O)[C@H](CO)NC(=O)[C@H](CC(C)C)NC(=O)[C@H](CC(=O)O)NC(=O)[C@@H](NC(=O)[C@H](CO)NC(=O)[C@@H](NC(=O)[C@@H]1CCCN1C(=O)[C@@H]1CCCN1C(=O)CNC(=O)[C@@H]1CCC(=O)N1)[C@@H](C)CC)[C@@H](C)CC)[C@@H](C)CC)[C@@H](C)CC)[C@@H](C)O)C(=O)O` [SAUVAGINE], the Emax in assay [3] came out at 95%; in assay [4] it was 99%.
In the same order, the values of “H-IVLSLDVPIGLLQILLEQARARAAREQATTNARILARV-OH” are 96% and 8%.
In the same order, the values of `CC[C@H](C)[C@H](NC(=O)[C@@H](NC(=O)[C@H](CCC(=O)O)NC(=O)[C@H](CCSC)NC(=O)[C@H](CC(C)C)NC(=O)[C@H](CCCCN)NC(=O)[C@H](CCCN=C(N)N)NC(=O)[C@H](CC(N)=O)NC(=O)[C@H](CO)NC(=O)[C@H](Cc1c[nH]cn1)NC(=O)[C@H](C)NC(=O)[C@H](CCC(N)=O)NC(=O)[C@H](CCC(N)=O)NC(=O)[C@H](C)NC(=O)[C@H](CC(C)C)NC(=O)[C@H](CCC(N)=O)NC(=O)[C@H](CCC(=O)O)NC(=O)[C@H](C)NC(=O)[C@H](CCCN=C(N)N)NC(=O)[C@H](C)NC(=O)[C@H](CCSC)NC(=O)[C@H](CCC(=O)O)NC(=O)[C@H](CC(C)C)NC(=O)[C@@H](NC(=O)[C@H](CCC(=O)O)NC(=O)[C@H](CCCN=C(N)N)NC(=O)[C@H](CC(C)C)NC(=O)[C@H](CC(C)C)NC(=O)[C@H](Cc1c[nH]cn1)NC(=O)[C@H](Cc1ccccc1)NC(=O)[C@@H](NC(=O)[C@H](CC(C)C)NC(=O)[C@H](CC(=O)O)NC(=O)[C@H](CC(C)C)NC(=O)[C@H](CO)NC(=O)[C@@H](NC(=O)[C@@H]1CCCN1C(=O)[C@@H]1CCCN1C(=O)[C@H](CCC(=O)O)NC(=O)[C@H](CCC(=O)O)NC(=O)[C@@H](N)CO)[C@@H](C)CC)[C@@H](C)O)C(C)C)[C@@H](C)CC)C(=O)O` are 82% and 87%.
